According to patent US9914730B2, “Azaquinazoline inhibitors of Atypical protein Kinase C” (Ignyta, Inc., priority 2012, dated 2018):

Biological target: T1, full-length human PKCι (Homo sapiens, UniProt P41743)
T1 construct: Recombinant, full-length human PKCι expressed in Sf21 insect cells is also commercially available; purchased; host or cells: Sf21 insect cells
T1 sequence (P41743 1-596): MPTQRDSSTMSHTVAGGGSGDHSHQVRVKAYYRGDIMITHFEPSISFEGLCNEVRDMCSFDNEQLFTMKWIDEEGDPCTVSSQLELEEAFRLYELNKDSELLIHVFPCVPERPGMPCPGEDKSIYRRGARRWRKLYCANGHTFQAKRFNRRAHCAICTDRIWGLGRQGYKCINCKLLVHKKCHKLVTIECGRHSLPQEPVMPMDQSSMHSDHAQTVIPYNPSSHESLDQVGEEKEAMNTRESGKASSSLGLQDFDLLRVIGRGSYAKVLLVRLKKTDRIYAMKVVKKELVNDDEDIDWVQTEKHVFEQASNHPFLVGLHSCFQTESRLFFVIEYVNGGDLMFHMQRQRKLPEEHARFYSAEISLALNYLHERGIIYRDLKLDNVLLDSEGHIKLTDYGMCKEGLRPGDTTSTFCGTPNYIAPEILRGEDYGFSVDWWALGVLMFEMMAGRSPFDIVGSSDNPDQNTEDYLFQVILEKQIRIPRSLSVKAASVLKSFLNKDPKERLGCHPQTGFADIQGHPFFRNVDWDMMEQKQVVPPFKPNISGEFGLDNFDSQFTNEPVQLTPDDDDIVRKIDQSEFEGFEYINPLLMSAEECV
Assay: PKCι IC50 IMAP assay, full-length PKCι at 150 μM ATP
Type: biochemical
Details: read-out: IC50 in IMAP assay against full length PKCi at 150 μM ATP
How it was run: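 Phosphorylation of a 5FAM-tagged PKCε pseudopeptide-derived substrate (100 nM) by full-length recombinant human PKCι was monitored by IMAP fluorescence polarisation. ATP was held at 150 μM, five times its apparent KM, with 60 min room-temperature incubation.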

IC50 [nM] | Compound
< 100 | Fc1cc(F)c(Nc2cc(-c3nc(NC4CCNCC4)c4c(C5CC5)cncc4n3)ccn2)nc1F [Example 2065, {5-Cyclopropyl-2-[2-(3,5,6-trifluoro-pyridin-2-ylamino)-pyridin-4-yl]-pyrido[3,4-d]pyrimidin-4-yl}-piperidin-4-yl-amine]
< 100 | CC(Nc1cc(-c2nc(N3CCNCC3)c3c(C4CC4)cncc3n2)ccn1)C1CCCO1 (centres unmarked) [Example 2066, [4-(5-Cyclopropyl-4-piperazin-1-yl-pyrido[3,4-d]pyrimidin-2-yl)-pyridin-2-yl]-[1-(tetrahydro-furan-2-yl)-ethyl]-amine]
< 100 | C[C@@H](Nc1cc(-c2nc(N3CCNCC3)c3c(C4CC4)cncc3n2)ccn1)c1ccccc1F [Example 2067, [4-(5-Cyclopropyl-4-piperazin-1-yl-pyrido[3,4-d]pyrimidin-2-yl)-pyridin-2-yl]-[(R)-1-(2-fluoro-phenyl)-ethyl]-amine]
< 100 | FC(F)(F)c1cc2c(-c3nc(NC4CCNCC4)c4c(C5CC5)cncc4n3)ccnc2[nH]1 [Example 2068, [5-Cyclopropyl-2-(2-trifluoromethyl-1H-pyrrolo[2,3-b]pyridin-4-yl)-pyrido[3,4-d]pyrimidin-4-yl]-piperidin-4-yl-amine]
< 100 | FC(F)(F)c1cc2c(-c3nc(N4CCNCC4)c4c(C5CC5)cnc(Cl)c4n3)ccnc2[nH]1 [Example 2071, 8-Chloro-5-cyclopropyl-4-piperazin-1-yl-2-(2-trifluoromethyl-1H-pyrrolo[2,3-b]pyridin-4-yl)-pyrido[3,4-d]pyrimidine]
< 100 | c1ccn2nc(Nc3cc(-c4nc(N5CCNCC5)c5c(C6CC6)cncc5n4)ccn3)cc2c1 [Example 2072, [4-(5-Cyclopropyl-4-piperazin-1-yl-pyrido[3,4-d]pyrimidin-2-yl)-pyridin-2-yl]-pyrazolo[1,5-a]pyridin-2-yl-amine]
< 100 | C[C@@H]1CN(c2nc(-c3ccnc(NC4CCN(CC(F)(F)F)CC4)c3)nc3cncc(C4CC4)c23)C[C@H](C)N1 [Example 2073, {4-[5-Cyclopropyl-4-((cis)-3,5-dimethyl-piperazin-1-yl)-pyrido[3,4-d]pyrimidin-2-yl]-pyridin-2-yl}-[1-(2,2,2-trifluoro-ethyl)-piperidin-4-yl]-amine]
< 100 | Clc1cc2c(-c3nc(N4CCNCC4)c4c(C5CC5)cncc4n3)ccnc2[nH]1 [Example 2074, 2-(2-Chloro-1H-pyrrolo[2,3-b]pyridin-4-yl)-5-cyclopropyl-4-piperazin-1-yl-pyrido[3,4-d]pyrimidine]
< 100 | COCc1cc2c(-c3nc(N4CCNCC4)c4c(C5CC5)cncc4n3)ccnc2[nH]1 [Example 2075, 5-Cyclopropyl-2-(2-methoxymethyl-1H-pyrrolo[2,3-b]pyridin-4-yl)-4-piperazin-1-yl-pyrido[3,4-d]pyrimidine]
100 to 1000 | O=C1CC(Nc2nc(-c3ccnc(Nc4c(F)cccc4F)c3)nc3cncc(C4CC4)c23)CCN1 (centres unmarked) [Example 2076, 4-{5-Cyclopropyl-2-[2-(2,6-difluoro-phenylamino)-pyridin-4-yl]-pyrido[3,4-d]pyrimidin-4-ylamino}-piperidin-2-one]
10000 to 40000 | Cn1c(C(F)(F)F)cc2c(-c3nc(N[C@@H]4CCNC4)c4c(C5CC5)cncc4n3)ccnc21 [Example 2077, [5-Cyclopropyl-2-(1-methyl-2-trifluoromethyl-1H-pyrrolo[2,3-b]pyridin-4-yl)-pyrido[3,4-d]pyrimidin-4-yl]-(R)-pyrrolidin-3-yl-amine]
< 100 | c1ccc2nc(Nc3cc(-c4nc(N5CCNCC5)c5c(C6CC6)cncc5n4)ccn3)ccc2c1 [Example 2078, [4-(5-Cyclopropyl-4-piperazin-1-yl-pyrido[3,4-d]pyrimidin-2-yl)-pyridin-2-yl]-[D4],[D3]uinolin-2-yl-amine]
< 100 | COCc1cc2c(-c3nc(N4CCNCC4)c4c(C5CCC5)cncc4n3)ccnc2[nH]1 [Example 2080, 5-Cyclobutyl-2-(2-methoxymethyl-1H-pyrrolo[2,3-b]pyridin-4-yl)-4-piperazin-1-yl-pyrido[3,4-d]pyrimidine]
< 100 | c1cc(-c2nc(N3CCNCC3)c3c(C4CCC4)cncc3n2)c2cc[nH]c2n1 [Example 2082, 5-Cyclobutyl-4-piperazin-1-yl-2-(1H-pyrrolo[2,3-b]pyridin-4-yl)-pyrido[3,4-d]pyrimidine]
< 100 | CN1CCC(Nc2nc(-c3ccnc(Nc4c(F)cccc4F)c3)nc3cncc(C4CC4)c23)CC1 [Example 2084, {5-Cyclopropyl-2-[2-(2,6-difluoro-phenylamino)-pyridin-4-yl]-pyrido[3,4-d]pyrimidin-4-yl}-(1-methyl-piperidin-4-yl)-amine]
100 to 1000 | CC(=O)N1CCC(Nc2nc(-c3ccnc(Nc4c(F)cccc4F)c3)nc3cncc(C4CC4)c23)CC1 [Example 2085, 1-(4-{5-Cyclopropyl-2-[2-(2,6-difluoro-phenylamino)-pyridin-4-yl]-pyrido[3,4-d]pyrimidin-4-ylamino}-piperidin-1-yl)-ethanone]
< 100 | CC(C)(c1ccccc1)c1cc2c(-c3nc(N4CCNCC4)c4c(C5CC5)cncc4n3)ccnc2[nH]1 [Example 2086, 5-Cyclopropyl-2-[2-(1-methyl-1-phenyl-ethyl)-1H-pyrrolo[2,3-b]pyridin-4-yl]-4-piperazin-1-yl-pyrido[3,4-d]pyrimidine]
< 100 | Clc1c[nH]c2nccc(-c3nc(N4CCNCC4)c4c(C5CC5)cncc4n3)c12 [Example 2087, 2-(3-Chloro-1H-pyrrolo[2,3-b]pyridin-4-yl)-5-cyclopropyl-4-piperazin-1-yl-pyrido[3,4-d]pyrimidine]
< 100 | CN(c1nc(-c2ccnc3[nH]c(C(F)(F)F)cc23)nc2cncc(C3CC3)c12)[C@@H]1CCNC1 [Example 2088, [5-Cyclopropyl-2-(2-trifluoromethyl-1H-pyrrolo[2,3-b]pyridin-4-yl)-pyrido[3,4-d]pyrimidin-4-yl]-methyl-(R)-pyrrolidin-3-yl-amine]
< 100 | c1ccc2c(Nc3cc(-c4nc(N5CCNCC5)c5c(C6CC6)cncc5n4)ccn3)nccc2c1 [Example 2089, [4-(5-Cyclopropyl-4-piperazin-1-yl-pyrido[3,4-d]pyrimidin-2-yl)-pyridin-2-yl]-iso[D4],[D3]uinolin-1-yl-amine]
100 to 1000 | c1ccc2c(c1)[nH]c1nccc(-c3nc(N4CCNCC4)c4c(C5CCC5)cncc4n3)c12 [Example 2090, 4-(5-Cyclobutyl-4-piperazin-1-yl-pyrido[3,4-d]pyrimidin-2-yl)-9H-pyrido[2,3-b]indole]
< 100 | c1ccc2c(c1)[nH]c1nccc(-c3nc(N4CCNCC4)c4ccncc4n3)c12 [Example 2091, 4-(4-Piperazin-1-yl-pyrido[3,4-d]pyrimidin-2-yl)-9H-pyrido[2,3-b]indole]
< 100 | Cc1cc2c(-c3nc(N4CCNCC4)c4c(C5CC5)cnc(Cl)c4n3)ccnc2[nH]1 [Example 2092, 8-Chloro-5-cyclopropyl-2-(2-methyl-1H-pyrrolo[2,3-b]pyridin-4-yl)-4-piperazin-1-yl-pyrido[3,4-d]pyrimidine]
< 100 | C=Cc1cncc2nc(-c3ccnc(Nc4c(F)cccc4F)c3)nc(N3CCNCC3)c12 [Example 2094, (2,6-Difluoro-phenyl)-[4-(4-piperazin-1-yl-5-vinyl-pyrido[3,4-d]pyrimidin-2-yl)-pyridin-2-yl]-amine]
100 to 1000 | CC(=O)N1CCC(N(C)c2nc(-c3ccnc(Nc4c(F)cccc4F)c3)nc3cncc(C4CC4)c23)CC1 [Example 2096, 1-[4-({5-Cyclopropyl-2-[2-(2,6-difluoro-phenylamino)-pyridin-4-yl]-pyrido[3,4-d]pyrimidin-4-yl}-methyl-amino)-piperidin-1-yl]-ethanone]

Compound | IC50 [nM]
CN(c1nc(-c2ccnc3[nH]c(C(F)(F)F)cc23)nc2cncc(C3CC3)c12)C1CCNCC1 [Example 2070, [5-Cyclopropyl-2-(2-trifluoromethyl-1H-pyrrolo[2,3-b]pyridin-4-yl)-pyrido[3,4-d]pyrimidin-4-yl]-methyl-piperidin-4-yl-amine] | < 100
CN1CCC(N(C)c2nc(-c3ccnc4[nH]c(C(F)(F)F)cc34)nc3cncc(C4CC4)c23)CC1 [Example 2081, [5-Cyclopropyl-2-(2-trifluoromethyl-1H-pyrrolo[2,3-b]pyridin-4-yl)-pyrido[3,4-d]pyrimidin-4-yl]-methyl-(1-methyl-piperidin-4-yl)-amine] | < 100
CN1CCC(N(C)c2nc(-c3ccnc(Nc4c(F)cccc4F)c3)nc3cncc(C4CC4)c23)CC1 [Example 2083, {5-Cyclopropyl-2-[2-(2,6-difluoro-phenylamino)-pyridin-4-yl]-pyrido[3,4-d]pyrimidin-4-yl}-methyl-(1-methyl-piperidin-4-yl)-amine] | < 100
CN(c1nc(-c2ccnc(Nc3ncc(F)cc3F)c2)nc2cncc(C3CC3)c12)C1CCNCC1 [Example 2095, {5-Cyclopropyl-2-[2-(3,5-difluoro-pyridin-2-ylamino)-pyridin-4-yl]-pyrido[3,4-d]pyrimidin-4-yl}-methyl-piperidin-4-yl-amine] | < 100
